Measurements from patent publication US12486253B2, “Therapeutics for the degradation of mutant BRAF” (C4 THERAPEUTICS, INC., priority 2021, dated 2025).

Legend:
[1] = Body weight change in the A375 xenograft study; assay type: in vivo, BALB/c nude mice; conditions: all doses, PO, A375 tumor-bearing mice
Description: The efficacy study was conducted in female BALB/c nude mice bearing A375 tumors. Female BALB/c nude mice were inoculated subcutaneously in the right flank with A375 tumor cells (5×10^6) in 0.2 mL of PBS supplemented with Matrigel (at a 1:1 ratio) for tumor development. Tumor volume was measured twice weekly in two dimensions using calipers, and volume (mm^3) was calculated using the formula: V=0.5 a×b^2 where a and b are the long and short diameters of the tumor in mm, respectively. Once the tumors reached an average tumor volume of 246 mm^3 (16 days after implantation), the animals were divided randomly into groups of 6, stratified to result in about equal average tumor sizes in each treatment group and treatment began on Day 0.
All agents were administered to mice bearing A375 tumors orally (PO), daily (QD; encorafenib), twice a day (BID) or three times a day (TID) for Compound 157, for 21 or 35 days. encorafenib was dosed at 35 mg/kg and Compound 157 at 0.1, 0.3, 1, 3 or 10 mg/kg twice a day or 2 mg/kg three times a day. Compound 157 was formulated in 20% PEG400+80% (25% SBECD). Body weight and MTV were measured on a 2× weekly schedule and reported as Mean±SEM.

ERK phosphorylation = test: Western blot of ERK phosphorylation in A375 cells expressing NRAS^Q61K; assay type: cell-based; conditions: 24 hours
BRAF V600E = BRAF V600E (Homo sapiens, UniProt P15056, V600E); test: Global proteomics profiling, A375 cells; assay type: cell-based; parameters: endogenous in cells; host or cells: A375; conditions: 300 nM, 24 hours, compared to 300 nM dabrafenib treatment
Chain of BRAF V600E (P15056 whole entry V600E): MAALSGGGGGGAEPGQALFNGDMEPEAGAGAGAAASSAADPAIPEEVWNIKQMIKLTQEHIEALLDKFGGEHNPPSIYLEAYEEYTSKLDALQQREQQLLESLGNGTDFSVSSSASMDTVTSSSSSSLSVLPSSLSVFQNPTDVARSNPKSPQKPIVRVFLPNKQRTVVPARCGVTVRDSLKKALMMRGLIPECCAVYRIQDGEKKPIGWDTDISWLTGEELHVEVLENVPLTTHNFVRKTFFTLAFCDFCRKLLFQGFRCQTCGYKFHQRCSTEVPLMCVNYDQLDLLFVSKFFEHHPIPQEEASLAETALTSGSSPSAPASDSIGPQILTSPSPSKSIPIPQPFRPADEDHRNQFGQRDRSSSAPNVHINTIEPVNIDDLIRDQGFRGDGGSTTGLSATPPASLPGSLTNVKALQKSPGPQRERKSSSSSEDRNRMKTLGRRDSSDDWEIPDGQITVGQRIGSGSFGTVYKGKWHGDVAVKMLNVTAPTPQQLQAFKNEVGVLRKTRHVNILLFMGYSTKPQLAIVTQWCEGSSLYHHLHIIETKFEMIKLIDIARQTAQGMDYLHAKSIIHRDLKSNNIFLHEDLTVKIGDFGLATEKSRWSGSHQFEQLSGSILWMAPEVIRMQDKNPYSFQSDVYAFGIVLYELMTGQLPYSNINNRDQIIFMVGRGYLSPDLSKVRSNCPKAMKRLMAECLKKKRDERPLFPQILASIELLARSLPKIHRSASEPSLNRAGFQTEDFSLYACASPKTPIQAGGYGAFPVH
Description: (§1) Each cell line was treated in duplicate with either DMSO or Compound 157 (final concentration 300 nM) for 24 hours in an incubator at 37° C. with 5% CO2. After the 24-hour incubation, cells were harvested, washed twice with PBS, and snap frozen in liquid nitrogen. Samples were re-suspended in lysis buffer [8 M urea, 50 mM HEPES (pH 8.5), 50 mM NaCl, 1× protease inhibitor cocktail] and lysed by sonication at 4° C. with 85% amplitude in a pulse setting with 30 seconds on and 30 seconds off for a total sonication time of 5 minutes. Lysates were centrifuged at maximum speed for 10 minutes at 4° C. and the supernatant collected, reduced for 1 hour at room temperature with 5 mM TCEP, and the cysteine residues were then alkylated with 15 mM iodoacetamide (room temperature, in dark, 30 minutes). Protein content was extracted by methanol-chloroform precipitation and subsequent ice-cold acetone washes. Protein pellets were resuspended in 8 M urea, 50 mM HEPES (pH 8.5) buffer and protein concentrations were measured by BCA assay. […]
(§2) For peptide tandem mass tag (TMT) labeling, 100 μg of peptides per sample was prepared at […] concentration in 200 mM HEPES (pH 8.5), 30% acetonitrile (ACN) and each the specific TMT reagent. […] TMT reporter ion intensities were quantified by extracting the signal-to-noise ratio for each. […]

RAF1 (a.k.a CRAF) = RAF1 (a.k.a CRAF) (Homo sapiens, UniProt P04049); test: Global proteomics profiling, A375 cells; assay type: cell-based; parameters: endogenous in cells; host or cells: A375 (A8.2); conditions: 300 nM, 24 hours
Chain of RAF1 (a.k.a CRAF) (P04049 whole entry): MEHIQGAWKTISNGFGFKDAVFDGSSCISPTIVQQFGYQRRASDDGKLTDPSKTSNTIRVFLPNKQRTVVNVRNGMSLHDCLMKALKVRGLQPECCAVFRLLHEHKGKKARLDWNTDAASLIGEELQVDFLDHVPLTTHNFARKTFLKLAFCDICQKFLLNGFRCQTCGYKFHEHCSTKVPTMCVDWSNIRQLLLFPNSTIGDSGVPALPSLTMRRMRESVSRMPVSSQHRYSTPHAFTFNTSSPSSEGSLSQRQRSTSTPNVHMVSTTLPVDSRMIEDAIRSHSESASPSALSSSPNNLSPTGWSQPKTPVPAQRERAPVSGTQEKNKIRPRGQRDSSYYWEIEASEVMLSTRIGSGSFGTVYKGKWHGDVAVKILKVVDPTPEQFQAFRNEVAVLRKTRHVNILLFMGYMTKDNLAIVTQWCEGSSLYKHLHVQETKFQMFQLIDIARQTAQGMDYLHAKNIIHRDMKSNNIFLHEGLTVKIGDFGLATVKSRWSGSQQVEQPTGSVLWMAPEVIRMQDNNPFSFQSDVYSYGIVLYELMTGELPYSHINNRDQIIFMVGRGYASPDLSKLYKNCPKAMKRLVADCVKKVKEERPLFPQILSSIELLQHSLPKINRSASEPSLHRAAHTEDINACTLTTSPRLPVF
Description: as §1, §2

ARAF = ARAF (Homo sapiens, UniProt P10398); test: Global proteomics profiling, A375 cells; assay type: cell-based; parameters: endogenous in cells; host or cells: A375 (A7.2); conditions: 300 nM, 24 hours
Chain of ARAF (P10398 whole entry): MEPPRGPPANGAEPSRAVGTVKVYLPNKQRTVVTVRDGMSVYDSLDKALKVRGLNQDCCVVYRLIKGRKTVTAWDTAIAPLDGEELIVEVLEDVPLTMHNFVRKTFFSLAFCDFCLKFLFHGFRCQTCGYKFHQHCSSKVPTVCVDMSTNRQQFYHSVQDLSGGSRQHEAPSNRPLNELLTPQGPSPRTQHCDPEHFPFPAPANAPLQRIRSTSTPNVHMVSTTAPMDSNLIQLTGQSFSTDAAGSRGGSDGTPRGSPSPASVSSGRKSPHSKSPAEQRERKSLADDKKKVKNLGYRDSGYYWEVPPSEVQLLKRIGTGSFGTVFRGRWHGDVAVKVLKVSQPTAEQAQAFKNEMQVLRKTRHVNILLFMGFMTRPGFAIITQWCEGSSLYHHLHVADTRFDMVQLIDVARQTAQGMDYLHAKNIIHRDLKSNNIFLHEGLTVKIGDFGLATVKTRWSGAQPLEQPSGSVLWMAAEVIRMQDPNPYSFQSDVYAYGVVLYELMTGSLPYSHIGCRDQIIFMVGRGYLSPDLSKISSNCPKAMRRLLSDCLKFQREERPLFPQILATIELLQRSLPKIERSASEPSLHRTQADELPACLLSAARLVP
Description: as §1, §2

[2] = tested on: A375 cells expressing the oncogenic NRAS^Q61K mutation; test: Cellular growth over time of A375 cells expressing NRAS^Q61K; assay type: cell-based

CCN(C)S(=O)(=O)Nc1ccc(F)c(Oc2ccc3ncn([C@H]4COC5(CCN(C(=O)CC6(O)CCN(c7cc8c(cc7F)c(N7CCC(=O)NC7=O)nn8C)CC6)CC5)C4)c(=O)c3c2)c1C#N [Compound 157, (3R)-3-[6-[2-cyano-3-[[ethyl(methyl)sulfamoyl]amino]-6-fluorophenoxy]-4-oxoquinazolin-3-yl]-8-[2-[1-[3-(2,4-dioxo-1,3-diazinan-1-yl)-5-fluoro-1-methylindazol-6-yl]-4-hydroxypiperidin-4-yl]acetyl]-1-oxa-8-azaspiro[4.5]decane]
Mean body weight loss throughout the study [1]: ≤ 3.5% | ERK phosphorylation, in combination with trametinib (ERK phosphorylation; with 1 nM trametinib): completely suppressed | ERK phosphorylation, alone (ERK phosphorylation; without trametinib): can suppress MAPK signaling | BRAF^V600E protein remaining (BRAF V600E): 27% | RAF1 (CRAF) protein level change (RAF1 (a.k.a CRAF)): remain largely unchanged | ARAF protein level change (ARAF): remain largely unchanged | confluency [2]: ≤ 50%
